Experimental data reported in ChEMBL document CHEMBL1138151, “Design and synthesis of promiscuous high-affinity monoamine transporter ligands: unraveling transporter selectivity” (J Med Chem, 2006).

Tests used:
[1] = target: T1, Sodium-dependent noradrenaline transporter (Homo sapiens, UniProt P23975); experiment: Displacement of [3H]nisoxetine from NET
[2] = target: T2, Monoamine transporters; serotonin & dopamine (Homo sapiens) (UniProt P31645+Q01959); experiment: Selectivity for SERT over DAT; type: protein assay
[3] = target: T3, Sodium-dependent dopamine transporter (Homo sapiens, UniProt Q01959); experiment: Displacement of [125I]RTI-55 from DAT
[4] = target: T4, Sodium-dependent serotonin transporter (Homo sapiens, UniProt P31645); experiment: Displacement of [125I]RTI-55 from SERT
[5] = Selectivity for NET over DAT; type: protein assay; details: Homo sapiens
[6] = target: T4, Sodium-dependent serotonin transporter; experiment: Inhibition of [3H]5-HT uptake
[7] = target: T2, Monoamine transporters; serotonin & dopamine (Homo sapiens); experiment: Ratio for uptake of 5HT over DA; type: protein assay
[8] = target: T1, Sodium-dependent noradrenaline transporter; experiment: Inhibition of [3H]NE uptake
[9] = target: Monoamine transporters; Norepinephrine & dopamine (Homo sapiens) (UniProt Q01959+P23975); experiment: Ratio for uptake of NE over DA; type: protein assay
[10] = target: T3, Sodium-dependent dopamine transporter; experiment: Inhibition of [3H]DA uptake

T1 sequence (P23975 whole entry): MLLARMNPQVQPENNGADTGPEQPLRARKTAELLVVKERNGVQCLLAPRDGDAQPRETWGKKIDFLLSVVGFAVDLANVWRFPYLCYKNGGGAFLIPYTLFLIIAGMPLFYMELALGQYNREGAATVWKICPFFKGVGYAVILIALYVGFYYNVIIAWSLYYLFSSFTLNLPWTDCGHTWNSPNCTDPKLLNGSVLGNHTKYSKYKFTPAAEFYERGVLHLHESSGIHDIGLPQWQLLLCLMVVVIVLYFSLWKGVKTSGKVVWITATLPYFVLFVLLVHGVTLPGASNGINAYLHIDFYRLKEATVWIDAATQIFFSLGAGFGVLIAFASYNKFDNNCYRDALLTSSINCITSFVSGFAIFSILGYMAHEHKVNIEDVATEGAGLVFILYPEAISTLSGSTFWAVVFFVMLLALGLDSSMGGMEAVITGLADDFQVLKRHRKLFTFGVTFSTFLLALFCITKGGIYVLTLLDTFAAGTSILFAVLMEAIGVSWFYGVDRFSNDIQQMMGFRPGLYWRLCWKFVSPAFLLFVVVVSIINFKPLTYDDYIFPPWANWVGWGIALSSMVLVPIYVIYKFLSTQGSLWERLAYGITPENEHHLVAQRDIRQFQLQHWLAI
Monoamine transporters; Norepinephrine & dopamine (Homo sapiens), sequence (P23975 whole entry, looked up): as the sequence (P23975 whole entry) above
Monoamine transporters; Norepinephrine & dopamine (Homo sapiens), sequence (Q01959 whole entry, looked up): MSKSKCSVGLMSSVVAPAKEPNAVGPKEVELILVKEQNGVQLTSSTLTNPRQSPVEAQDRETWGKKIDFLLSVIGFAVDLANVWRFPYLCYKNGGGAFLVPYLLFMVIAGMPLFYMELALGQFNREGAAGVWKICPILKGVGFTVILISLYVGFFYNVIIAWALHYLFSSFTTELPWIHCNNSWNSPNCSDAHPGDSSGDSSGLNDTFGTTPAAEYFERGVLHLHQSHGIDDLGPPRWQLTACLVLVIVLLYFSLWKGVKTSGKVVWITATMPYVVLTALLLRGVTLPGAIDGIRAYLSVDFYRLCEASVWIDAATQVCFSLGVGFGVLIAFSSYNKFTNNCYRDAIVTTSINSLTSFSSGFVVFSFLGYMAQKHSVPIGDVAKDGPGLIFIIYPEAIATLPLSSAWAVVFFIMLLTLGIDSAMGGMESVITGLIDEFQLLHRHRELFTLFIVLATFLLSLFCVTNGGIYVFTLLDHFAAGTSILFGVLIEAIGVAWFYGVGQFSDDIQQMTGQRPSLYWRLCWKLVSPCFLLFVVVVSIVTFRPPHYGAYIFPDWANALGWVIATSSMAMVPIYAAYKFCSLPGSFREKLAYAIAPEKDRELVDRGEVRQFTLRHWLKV
T3 sequence (Q01959 whole entry): as the sequence (Q01959 whole entry, looked up) above
T2 sequence (P31645 whole entry, looked up): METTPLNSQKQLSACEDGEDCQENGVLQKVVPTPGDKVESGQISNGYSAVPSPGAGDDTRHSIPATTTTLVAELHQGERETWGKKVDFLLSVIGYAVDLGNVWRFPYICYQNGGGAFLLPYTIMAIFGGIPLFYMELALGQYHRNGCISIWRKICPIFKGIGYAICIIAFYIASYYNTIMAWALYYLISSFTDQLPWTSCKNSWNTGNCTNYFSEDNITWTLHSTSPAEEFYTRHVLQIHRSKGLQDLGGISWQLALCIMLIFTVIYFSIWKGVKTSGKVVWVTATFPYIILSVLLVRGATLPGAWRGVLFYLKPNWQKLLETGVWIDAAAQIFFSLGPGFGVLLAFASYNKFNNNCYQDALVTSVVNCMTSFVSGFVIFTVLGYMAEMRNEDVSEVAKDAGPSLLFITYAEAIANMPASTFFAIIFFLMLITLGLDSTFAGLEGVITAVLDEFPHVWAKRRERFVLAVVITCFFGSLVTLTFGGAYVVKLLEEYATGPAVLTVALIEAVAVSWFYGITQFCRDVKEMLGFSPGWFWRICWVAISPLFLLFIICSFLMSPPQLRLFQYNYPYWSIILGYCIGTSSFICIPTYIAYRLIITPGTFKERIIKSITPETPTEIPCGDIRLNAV
T2 sequence (Q01959 whole entry, looked up): as the sequence (Q01959 whole entry, looked up) above
T4 sequence (P31645 whole entry): as the sequence (P31645 whole entry, looked up) above

SMILES	Ki [1]	Ratio Ki [2]	Ki [3]	Ki [4]	Ratio Ki [5]	Ki [6]	Ratio Ki [7]	Ki [8]	Ratio Ki [9]	Ki [10]
Fc1ccc(C(OCCC2CCN(C[C@@H]3C[C@H]3c3ccccc3)CC2)c2ccc(F)cc2)cc1	947 nM	32	0.5 nM	16 nM	1890	–	–	–	–	–
C[C@H](Cc1ccccc1)CN1CCC(CCOC(c2ccc(F)cc2)c2ccc(F)cc2)CC1	103 nM	61	0.9 nM	53 nM	118	–	–	–	–	–
O[C@@H](Cc1ccccc1)CN1CCC(CCOC(c2ccccc2)c2ccccc2)CC1	485 nM	332	1.4 nM	450 nM	359	–	–	–	–	–
O[C@@H](CCc1ccccc1)CN1CCC(CCOC(c2ccc(F)cc2)c2ccc(F)cc2)CC1	736 nM	24	1.6 nM	38 nM	457	–	–	–	–	–
O[C@@H](CCN1CCC(CCOC(c2ccc(F)cc2)c2ccc(F)cc2)CC1)c1ccccc1	440 nM	26	0.9 nM	22 nM	515	–	–	–	–	–
Fc1ccc(C(OCCC2CCN(CC3=Cc4ccccc4CC3)CC2)c2ccc(F)cc2)cc1	43 nM	118	1.1 nM	127 nM	40	–	–	–	–	–
O[C@H](Cc1ccccc1)CN1CCC(CCOC(c2ccccc2)c2ccccc2)CC1	785 nM	42	6.9 nM	286 nM	114	–	–	–	–	–
N[C@@H](Cc1ccccc1)CN1CCC(CCOC(c2ccc(F)cc2)c2ccc(F)cc2)CC1	851 nM	12	6.3 nM	76 nM	135	228 nM	18	338 nM	26	13 nM
O[C@@H](CCN1CCC(CCOC(c2ccccc2)c2ccccc2)CC1)c1ccccc1	210 nM	107	2.1 nM	230 nM	101	–	–	–	–	–
Fc1ccc(C(OCCC2CCN(C[C@H]3C[C@@H]3c3ccccc3)CC2)c2ccc(F)cc2)cc1	359 nM	97	1.4 nM	136 nM	256	–	–	–	–	–
N[C@H](Cc1ccccc1)CN1CCC(CCOC(c2ccc(F)cc2)c2ccc(F)cc2)CC1	941 nM	6	12 nM	68 nM	78	229 nM	13	402 nM	24	17 nM
C[C@@H](CCN1CCC(CCOC(c2ccc(F)cc2)c2ccc(F)cc2)CC1)c1ccccc1	340 nM	22	1.3 nM	30 nM	259	75 nM	36	40 nM	19	2.1 nM
C[C@H](CCN1CCC(CCOC(c2ccc(F)cc2)c2ccc(F)cc2)CC1)c1ccccc1	560 nM	26	2.2 nM	58 nM	253	–	–	–	–	–
O[C@H](CCc1ccccc1)CN1CCC(CCOC(c2ccc(F)cc2)c2ccc(F)cc2)CC1	460 nM	6	2.1 nM	13 nM	215	19 nM	14	79 nM	56	1.4 nM
O[C@H](CCN1CCC(CCOC(c2ccccc2)c2ccccc2)CC1)c1ccccc1	> 5600 nM	158	1.8 nM	280 nM	> 3200	–	–	–	–	–
O[C@H](Cc1ccccc1)CN1CCC(CCOC(c2ccc(F)cc2)c2ccc(F)cc2)CC1	1220 nM	18	5.1 nM	91 nM	240	41 nM	24	143 nM	84	1.7 nM
C[C@@H](Cc1ccccc1)CN1CCC(CCOC(c2ccc(F)cc2)c2ccc(F)cc2)CC1	380 nM	13	8 nM	100 nM	47	124 nM	33	160 nM	42	3.8 nM
O[C@@H](Cc1ccccc1)CN1CCC(CCOC(c2ccc(F)cc2)c2ccc(F)cc2)CC1	361 nM	205	0.4 nM	82 nM	902	–	–	–	–	–
O[C@H](CCN1CCC(CCOC(c2ccc(F)cc2)c2ccc(F)cc2)CC1)c1ccccc1	330 nM	51	0.8 nM	43 nM	394	–	–	–	–	–
